The values that follow come from article PMC3265415, “Fatty acyl-CoA reductases of birds” (BMC Biochemistry, 2011).

Common to all, as to experiment: radio-TLC assay of yeast membrane fraction (alcohols + aldehydes)
Format in all cases: biochemical

In one assay the target is T1, AdFAR1 (Anser anser, UniProt G9IBF1).
T1 construct: gene FAR1; full-length cDNA from uropygial gland in pYES-DEST52 (primer keeps stop codon); S. cerevisiae BY4741 dga1 lro1 membranes
T1 sequence (G9IBF1 1-515): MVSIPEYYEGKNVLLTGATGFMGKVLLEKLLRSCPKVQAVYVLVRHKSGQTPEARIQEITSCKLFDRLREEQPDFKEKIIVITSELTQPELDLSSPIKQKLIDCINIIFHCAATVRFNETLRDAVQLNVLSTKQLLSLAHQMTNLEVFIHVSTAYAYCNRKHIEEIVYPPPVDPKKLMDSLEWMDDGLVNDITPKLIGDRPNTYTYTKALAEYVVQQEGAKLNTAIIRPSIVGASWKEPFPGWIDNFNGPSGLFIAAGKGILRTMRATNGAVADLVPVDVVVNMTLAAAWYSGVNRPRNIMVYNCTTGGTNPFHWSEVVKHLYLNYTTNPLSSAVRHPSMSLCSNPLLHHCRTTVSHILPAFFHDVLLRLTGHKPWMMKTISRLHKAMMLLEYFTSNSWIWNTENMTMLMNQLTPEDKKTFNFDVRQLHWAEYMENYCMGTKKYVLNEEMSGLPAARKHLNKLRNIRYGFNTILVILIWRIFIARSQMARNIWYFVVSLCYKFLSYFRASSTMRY
The following applies: pH 6.5, 37 C.

The next assay addresses T2, GgFAR2 (Gallus gallus, UniProt A0A3Q2TWV7, V159M/K457R).
T2 construct: gene FAR2; uropygial gland cDNA in pYES-DEST52, S. cerevisiae BY4741 dga1 lro1 membranes
T2 sequence (A0A3Q2TWV7 1-515 V159M/K457R): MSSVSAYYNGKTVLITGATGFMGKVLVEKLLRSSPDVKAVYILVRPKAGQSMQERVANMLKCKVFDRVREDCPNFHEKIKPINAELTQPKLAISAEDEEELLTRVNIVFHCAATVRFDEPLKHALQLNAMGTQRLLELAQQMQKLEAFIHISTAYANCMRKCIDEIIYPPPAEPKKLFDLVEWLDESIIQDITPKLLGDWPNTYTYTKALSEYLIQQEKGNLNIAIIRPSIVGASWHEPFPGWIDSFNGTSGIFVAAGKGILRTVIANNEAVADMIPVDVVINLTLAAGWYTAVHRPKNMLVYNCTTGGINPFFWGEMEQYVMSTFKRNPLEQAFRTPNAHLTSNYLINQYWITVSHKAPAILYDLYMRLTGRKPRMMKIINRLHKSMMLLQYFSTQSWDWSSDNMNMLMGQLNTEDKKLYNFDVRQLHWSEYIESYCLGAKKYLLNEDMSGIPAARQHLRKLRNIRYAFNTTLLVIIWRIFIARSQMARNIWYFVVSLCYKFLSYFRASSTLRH
The following applies: labelled acyl-CoA as co-substrate; pH 5.5, 37 C.

For the next assay, the target named is T3, TaFAR1 (Tyto alba, UniProt G9IBF2).
T3 construct: gene FAR1; full-length cDNA from uropygial gland in pYES-DEST52 (primer keeps stop codon); expressed in Saccharomyces cerevisiae BY4741 dga1 lro1; total membrane fraction
T3 sequence (G9IBF2 1-515): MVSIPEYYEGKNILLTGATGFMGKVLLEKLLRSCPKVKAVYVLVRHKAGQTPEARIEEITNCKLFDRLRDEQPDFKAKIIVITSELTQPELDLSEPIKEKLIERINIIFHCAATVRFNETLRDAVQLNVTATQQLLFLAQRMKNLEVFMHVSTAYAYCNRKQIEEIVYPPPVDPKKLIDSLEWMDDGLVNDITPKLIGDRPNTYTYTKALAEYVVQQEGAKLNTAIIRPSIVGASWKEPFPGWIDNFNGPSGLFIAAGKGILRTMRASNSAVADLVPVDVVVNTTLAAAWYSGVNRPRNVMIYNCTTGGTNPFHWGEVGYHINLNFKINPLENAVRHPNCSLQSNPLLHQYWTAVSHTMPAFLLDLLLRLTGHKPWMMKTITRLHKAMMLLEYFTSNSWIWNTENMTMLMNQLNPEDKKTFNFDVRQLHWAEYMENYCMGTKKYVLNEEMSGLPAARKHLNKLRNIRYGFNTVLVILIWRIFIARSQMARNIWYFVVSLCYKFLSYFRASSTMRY
Conditions: labelled 16:0-CoA as co-substrate, NADPH varied; pH 6.5, 37 C.

The next assay addresses T4, GgFAR1 (Gallus gallus, UniProt Q5ZM72).
T4 construct: gene FAR1; uropygial gland cDNA in pYES-DEST52, S. cerevisiae BY4741 dga1 lro1 membranes
T4 sequence (Q5ZM72 1-515): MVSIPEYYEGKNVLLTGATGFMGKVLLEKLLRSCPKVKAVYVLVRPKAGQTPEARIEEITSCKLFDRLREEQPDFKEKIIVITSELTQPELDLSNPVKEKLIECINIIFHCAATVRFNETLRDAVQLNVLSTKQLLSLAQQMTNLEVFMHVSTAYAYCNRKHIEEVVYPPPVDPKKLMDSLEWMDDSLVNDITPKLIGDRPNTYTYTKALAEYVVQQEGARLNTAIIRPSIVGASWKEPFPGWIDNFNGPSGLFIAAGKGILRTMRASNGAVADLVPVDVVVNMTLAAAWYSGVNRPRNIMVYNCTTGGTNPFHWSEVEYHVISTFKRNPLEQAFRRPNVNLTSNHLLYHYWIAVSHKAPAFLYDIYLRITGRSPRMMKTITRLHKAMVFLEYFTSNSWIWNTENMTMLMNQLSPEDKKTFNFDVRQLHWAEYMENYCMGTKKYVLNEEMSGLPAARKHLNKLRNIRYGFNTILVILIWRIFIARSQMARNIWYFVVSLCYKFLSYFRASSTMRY
The following applies: labelled acyl-CoA as co-substrate; pH 6.5, 37 C.

The target of another assay is T5, TaFAR2 (Tyto alba, UniProt G9IBF3).
T5 construct: gene FAR2; full-length cDNA from uropygial gland in pYES-DEST52 (primer keeps stop codon); expressed in Saccharomyces cerevisiae BY4741 dga1 lro1; total membrane fraction
T5 sequence (G9IBF3 1-515): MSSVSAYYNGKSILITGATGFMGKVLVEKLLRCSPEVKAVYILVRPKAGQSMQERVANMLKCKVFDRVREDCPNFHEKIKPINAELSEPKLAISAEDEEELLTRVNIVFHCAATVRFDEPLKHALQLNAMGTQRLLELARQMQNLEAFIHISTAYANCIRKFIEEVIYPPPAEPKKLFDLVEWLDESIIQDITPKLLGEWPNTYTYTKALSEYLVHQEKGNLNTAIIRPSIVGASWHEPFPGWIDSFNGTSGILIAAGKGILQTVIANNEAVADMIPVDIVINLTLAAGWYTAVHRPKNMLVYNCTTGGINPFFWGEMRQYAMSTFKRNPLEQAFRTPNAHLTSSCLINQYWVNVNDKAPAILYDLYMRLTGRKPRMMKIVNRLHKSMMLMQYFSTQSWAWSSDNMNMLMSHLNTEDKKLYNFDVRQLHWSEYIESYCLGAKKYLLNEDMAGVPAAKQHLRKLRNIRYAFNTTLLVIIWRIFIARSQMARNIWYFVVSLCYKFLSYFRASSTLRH
Conditions: labelled 18:0-CoA as co-substrate; pH 5.5, 37 C.

The structures appear in SMILES notation.

In the case of `CCCCCCCCCCCCCCCC(=O)SCCNC(=O)CCNC(=O)[C@H](O)C(C)(C)COP(=O)(O)OP(=O)(O)OC[C@H]1O[C@@H](n2cnc3c(N)ncnc32)[C@H](O)[C@@H]1OP(=O)(O)O` [16:0-CoA], the “radio-TLC assay of yeast membrane fraction (alcohols + aldehydes)” value at AdFAR1 (20 uM acyl-CoA, 5 mM NADPH, 1 mM MgCl2, 16 uM BSA, labelled compound) is given as “only AdFAR1 of goose was almost equally active with all substrates”.
On to `NC(=O)C1=CN([C@@H]2O[C@H](COP(=O)(O)OP(=O)(O)OC[C@H]3O[C@@H](n4cnc5c(N)ncnc54)[C@H](OP(=O)(O)O)[C@@H]3O)[C@@H](O)[C@H]2O)C=CC1` [NADPH], for which the “radio-TLC assay of yeast membrane fraction (alcohols + aldehydes)” value on GgFAR2, on AdFAR1 (labelled acyl-CoA as co-substrate), at TaFAR1, on GgFAR1 and on TaFAR2 was “All FAR enzymes required NADPH as electron donor” throughout.
